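Interpolation was linear, between the two tested concentrations surrounding the appropriate level; five concentrations were tested over 48 hours in 96-well plates. At the TGI there is no net growth.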
Experiments:
Experiment in all cases: NCI-60 cell line screen, 48 h
[1] = system: UACC-257 melanoma
[2] = system: OVCAR-3 ovarian
[3] = system: SK-MEL-5 melanoma
[4] = system: MDA-MB-435
[5] = system: RXF 393 renal
[6] = system: MCF7 breast
[7] = system: CAKI-1 renal
[8] = system: M14 melanoma
[9] = system: SNB-19 CNS
[10] = system: HT29 colon
[11] = system: NCI-H522 lung
[12] = system: EKVX NSCLC
[13] = system: SF-539 CNS
[14] = system: SR leukemia
[15] = system: IGROV1 ovarian
[16] = system: ACHN renal
[17] = system: MDA-N
[18] = system: UO-31 renal
[19] = system: A498 renal
[20] = system: MOLT-4 leukemia
[21] = system: SK-MEL-28 melanoma
[22] = system: PC-3 prostate
[23] = system: SK-OV-3 ovarian
[24] = system: COLO 205 colon
[25] = system: HS 578T breast
[26] = system: HL-60(TB) leukemia
[27] = system: MDA-MB-231 breast
[28] = system: OVCAR-8 ovarian
[29] = system: HCT-15 colon
[30] = system: SF-268 CNS
[31] = system: U251 CNS
[32] = system: UACC-62 melanoma
[33] = system: TK-10 renal
[34] = system: T-47D breast
[35] = system: NCI-H460 lung
[36] = system: SW-620 colon
[37] = system: CCRF-CEM leukemia
[38] = system: MALME-3M melanoma
[39] = system: OVCAR-5 ovarian
[40] = system: KM12 colon
[41] = system: 786-0 renal
[42] = system: RPMI-8226 leukemia
[43] = system: NCI-H23 lung
[44] = system: OVCAR-4 ovarian
[45] = system: HCC-2998 colon
[46] = system: SK-MEL-2 melanoma
[47] = system: HOP-92 NSCLC
[48] = system: SF-295 CNS
[49] = system: K-562 leukemia
[50] = system: A549 NSCLC
[51] = system: LOX IMVI melanoma
[52] = system: DU-145 prostate
[53] = system: SN12C renal
[54] = system: HOP-62 NSCLC
[55] = system: HCT-116 colon
[56] = system: NCI-H226 lung
[57] = system: NCI/ADR-RES ovarian
[58] = system: SNB-75 CNS

## CCCNC(=S)N=Nc1c(O)[nH]c2ccccc12
[1]
  TGI: > 100 µM
[2]
  TGI: > 100 µM
[3]
  TGI: > 100 µM
[4]
  TGI: > 100 µM
[5]
  TGI: > 100 µM
[6]
  TGI: > 100 µM
[7]
  TGI: > 100 µM
[8]
  TGI: > 100 µM
[9]
  TGI: > 100 µM
[10]
  TGI: > 100 µM
[11]
  TGI: > 100 µM
[12]
  TGI: > 100 µM
[13]
  TGI: > 100 µM
[14]
  TGI: > 100 µM
[15]
  TGI: > 100 µM
[16]
  TGI: > 100 µM
[17]
  TGI: > 100 µM
[18]
  TGI: > 100 µM
[19]
  TGI: > 100 µM
[20]
  TGI: > 100 µM
[21]
  TGI: > 100 µM
[22]
  TGI: > 100 µM
[23]
  TGI: > 100 µM
[24]
  TGI: > 100 µM
[25]
  TGI: > 100 µM
[26]
  TGI: > 100 µM
[27]
  TGI: > 100 µM
[28]
  TGI: > 100 µM
[29]
  TGI: > 100 µM
[30]
  TGI: > 100 µM
[31]
  TGI: > 100 µM
[32]
  TGI: > 100 µM
[33]
  TGI: > 100 µM
[34]
  TGI: > 100 µM
[35]
  TGI: > 100 µM
[36]
  TGI: > 100 µM
[37]
  TGI: > 100 µM
[38]
  TGI: > 100 µM
[39]
  TGI: > 100 µM
[40]
  TGI: > 100 µM
[41]
  TGI: > 100 µM
[42]
  TGI: > 100 µM
[43]
  TGI: > 100 µM
[44]
  TGI: > 100 µM
[45]
  TGI: > 100 µM
[46]
  TGI: > 100 µM
[47]
  TGI: > 100 µM
[48]
  TGI: > 100 µM
[49]
  TGI: > 100 µM
[50]
  TGI: > 100 µM
[51]
  TGI: > 100 µM
[52]
  TGI: > 100 µM
[53]
  TGI: > 100 µM
[54]
  TGI: > 100 µM
[55]
  TGI: > 100 µM
[56]
  TGI: > 100 µM
[57]
  TGI: > 100 µM
[58]
  TGI: > 100 µM

## CSC(Cc1ccc2c(c1)Sc1ccccc1O2)=[N+]1CCOCC1
[1]
  TGI: > 100 µM
[2]
  TGI: > 100 µM
[4]
  TGI: > 100 µM
[5]
  TGI: > 100 µM
[6]
  TGI: > 100 µM
[7]
  TGI: > 100 µM
[8]
  TGI: > 100 µM
[9]
  TGI: > 100 µM
[10]
  TGI: > 100 µM
[12]
  TGI: > 100 µM
[13]
  TGI: > 100 µM
[14]
  TGI: 11.7 µM
[15]
  TGI: > 100 µM
[16]
  TGI: > 100 µM
[17]
  TGI: > 100 µM
[18]
  TGI: > 100 µM
[19]
  TGI: > 100 µM
[20]
  TGI: > 100 µM
[21]
  TGI: > 100 µM
[22]
  TGI: > 100 µM
[23]
  TGI: > 100 µM
[24]
  TGI: > 100 µM
[25]
  TGI: 86.6 µM
[26]
  TGI: > 100 µM
[27]
  TGI: > 100 µM
[28]
  TGI: > 100 µM
[29]
  TGI: > 100 µM
[30]
  TGI: > 100 µM
[31]
  TGI: > 100 µM
[32]
  TGI: > 100 µM
[33]
  TGI: > 100 µM
[34]
  TGI: > 100 µM
[35]
  TGI: > 100 µM
[36]
  TGI: > 100 µM
[38]
  TGI: 90.9 µM
[39]
  TGI: > 100 µM
[40]
  TGI: > 100 µM
[41]
  TGI: > 100 µM
[42]
  TGI: > 100 µM
[43]
  TGI: > 100 µM
[44]
  TGI: > 100 µM
[45]
  TGI: > 100 µM
[46]
  TGI: > 100 µM
[47]
  TGI: > 100 µM
[48]
  TGI: > 100 µM
[49]
  TGI: > 100 µM
[50]
  TGI: > 100 µM
[51]
  TGI: > 100 µM
[52]
  TGI: > 100 µM
[53]
  TGI: > 100 µM
[54]
  TGI: > 100 µM
[55]
  TGI: > 100 µM
[56]
  TGI: > 100 µM
[57]
  TGI: > 100 µM
[58]
  TGI: > 100 µM

Reference: PubChem BioAssay (NCI)
